{
  "source": "paper PMC11492034",
  "about": "“The MRGPRX2-substance P pathway regulates mast cell migration” (iScience, 2024)",
  "key": {"MC progenitors": {"test_system": "MC progenitors", "details": "LTB4: ref 38, 40, 42; PGE2: no ref at this clause; cited from earlier work"}, "MRGPRX2 [1]": {"target": "T1, MRGPRX2 (Homo sapiens, UniProt Q96LB1)", "T1 sequence (Q96LB1 whole entry)": "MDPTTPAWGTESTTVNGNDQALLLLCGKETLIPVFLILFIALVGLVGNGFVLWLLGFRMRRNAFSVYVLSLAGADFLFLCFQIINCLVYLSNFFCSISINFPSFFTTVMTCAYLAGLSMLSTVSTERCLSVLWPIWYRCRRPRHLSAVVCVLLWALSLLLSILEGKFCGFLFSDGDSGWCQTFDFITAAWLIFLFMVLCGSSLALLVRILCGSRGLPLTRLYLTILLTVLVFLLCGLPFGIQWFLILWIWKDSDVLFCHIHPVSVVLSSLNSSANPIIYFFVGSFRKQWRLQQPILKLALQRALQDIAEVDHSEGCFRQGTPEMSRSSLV", "details": "cited from earlier work"}, "MRGPRX2 [2]": {"target": "T1, MRGPRX2", "details": "15 min; 1 µM (PACAP1-38, PACAP1-27, PAMP9-20, VIP) or 10 µM (CGRP); concentration response 0.01-100 µM, n=1 of a mix of 2 donors", "method": "Degranulation was assessed by labelling of externalised CD63 (clone H5C6) as previously established[3] in response to substance P (Genscript, Oxford, UK), IgE/anti-IgE, anti-FcεRIα (clone AER37, Biolegend, London, UK) or C3a (CompTech, Tyler, USA). In all cases, cells were washed in PBS prior to incubation with live/dead™ reagent before analysis. […] Fc blocking reagent and antibodies were added, diluted in 1x permeabilisation buffer (BD Bioscience, Winnersh, UK), cells were washed and incubated with goat anti-mouse polyclonal antibodies labelled with PE or APC (Biolegend, London, UK). All cells were analysed on FACSymphony A5 or LSRFostessa instruments, and FlowJo software (BD Bioscience, Winnersh, UK). CD63 externalisation was used as a surrogate for MC degranulation according to established methodology.[52]^,[53]^,[54]\nPutative MRGPRX2 ligand activation of MRGPRX2 positive cells.\n(A) Gating showing degranulation, as measured by CD63 externalisation (x-axis), vs MRGPRX2 expression (y-\naxis) after 15 mins of treatment with labelled agonists at 1µM (PACAP1-38, PACAP1-27, PAMP9-20, VIP) or\nPercentage of cells in each quadrant is shown.\n(B) Degranulation of mast cells in response to agonists (0.01-100 µM) after 15 minutes of application, as\nshown. Data are n=1 of a mix of 2 donors."}, "neurokinin 1 receptor": {"test_system": "neurokinin 1 receptor", "details": "100 nM aprepitant, SP 0.03-10, immature mast cells, n=1", "method": "Chemotaxis assays were carried out using 8 μm pore ChemoTX™ assay plates (Neuroprobe, Gaithersburg, USA). Cells were first loaded with 5 μM Calcein-AM for 30 mins, 37°C/5% CO2 in cell culture medium prior to being washed and resuspended at a concentration of 1 x 10^6.ml^-1. Where appropriate cells were pre-incubated with Compound A or vehicle control. Chemoattractants were prepared in cell culture medium and placed in the lower chamber. The plate was constructed and 50 μl cell suspension applied to the upper part of the membrane of each well. No chemoattractant and equal chemoattractant on both sides of the chamber were used to control for random cell movement. The plate was incubated for 6 hours 37°C/5% CO2 before analysis of migrated cells, as follows. Cells were removed from above the membrane by pipetting, the membrane was then washed with PBS buffer containing 2mM EDTA and wiped using a rubber filter wiper (Neuroprobe). PBS/EDTA was applied to the upper side of the membrane and the plate incubated for 30 mins at 4°C before again being wiped. The plate was then centrifuged at 500 x g for 5 mins to capture cells attached to the underside of the membrane. […] Total migrated cells were counted as Live/Dead™-/Calcein-AM+/CD117+ cells or Live/Dead™-/Calcein-AM+ cells in each sample. […]"}, "asthmatic subjects": {"test_system": "asthmatic subjects", "details": "cited from earlier work"}},
  "data": [
    {"compound": "CCCCC[C@H](O)/C=C/[C@H]1[C@H](O)CC(=O)[C@@H]1C/C=C\\CCCC(=O)O", "note": "[PGE2]", "values": [
      {"measurement": "effect on MC migration", "setting": "MC progenitors", "value": "more prone to regulating cell movement within the tissue"}
    ]},
    {"compound": "PAMP-20", "values": [
      {"measurement": "binding to MRGPRX2", "setting": "MRGPRX2 [1]", "value": "binds"}
    ]},
    {"compound": "CCCCC/C=C\\C[C@@H](O)/C=C/C=C/C=C\\[C@@H](O)CCCC(=O)O", "note": "[LTB4]", "values": [
      {"measurement": "effect on MC migration", "setting": "MC progenitors", "value": "known to attract MC progenitors, recruiting them from the circulation, and lose its effect upon MC maturation"}
    ]},
    {"compound": "cortistatin-14", "values": [
      {"measurement": "binding to MRGPRX2", "setting": "MRGPRX2 [1]", "value": "binds"}
    ]},
    {"compound": "CGRP", "values": [
      {"measurement": "CD63 degranulation, neuropeptide", "setting": "MRGPRX2 [2]", "value": "minimal effect"}
    ]},
    {"compound": "LL-37", "values": [
      {"measurement": "binding to MRGPRX2", "setting": "MRGPRX2 [1]", "value": "binds"}
    ]},
    {"compound": "C[C@@H](O[C@H]1OCCN(Cc2n[nH]c(=O)[nH]2)[C@H]1c1ccc(F)cc1)c1cc(C(F)(F)F)cc(C(F)(F)F)c1", "note": "[aprepitant]", "values": [
      {"measurement": "inhibition of SP-induced chemotaxis", "setting": "neurokinin 1 receptor", "value": "did not"}
    ]},
    {"compound": "CSCC[C@H](NC(=O)[C@H](CC(C)C)NC(=O)CNC(=O)[C@H](Cc1ccccc1)NC(=O)[C@H](Cc1ccccc1)NC(=O)[C@H](CCC(N)=O)NC(=O)[C@H](CCC(N)=O)NC(=O)[C@@H]1CCCN1C(=O)[C@H](CCCCN)NC(=O)[C@@H]1CCCN1C(=O)[C@@H](N)CCCN=C(N)N)C(N)=O", "note": "[SP]", "values": [
      {"measurement": "bronchoconstriction in asthmatic subjects", "setting": "asthmatic subjects", "value": "does not induce bronchoconstriction"}
    ]}
  ]
}
